Among the test systems are ACHN renal; BT-549 breast; COLO 205 colon; IGROV1 ovarian; MDA-MB-231 breast; SF-268 CNS; SK-MEL-5 melanoma; SNB-19 CNS; SNB-75 CNS; SK-MEL-2 melanoma.
What all share (experiment): NCI anticancer screen, dose series, 48 h

This passage reports TGI results from PubChem BioAssay (NCI).

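Growth conditions: 96-well plates. Treatment: test compound, 48 hours, 5 concentrations. Analysis: linear interpolation between bracketing concentrations; unreached endpoints set to highest concentration. TGI denotes the concentration required for complete inhibition of growth.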

Regarding `Nc1ccccc1N=Nc1c(S(=O)(=O)O)cc2cc(S(=O)(=O)O)cc(O)c2c1O`, the TGI in the experiment with ACHN renal, in the experiment on BT-549 breast, in the experiment on COLO 205 colon, in the experiment on IGROV1 ovarian, in the experiment on MDA-MB-231 breast and in the experiment with SF-268 CNS was above 100 µM in each case. Further, the TGI in the experiment with SK-MEL-5 melanoma, in the experiment on SNB-19 CNS and in the experiment with SNB-75 CNS was above 100 µM each time.
Regarding `N#Cc1c(-c2ccccc2)c(C#N)c(=O)n(C2OC(CO)C(O)C(O)C2O)c1S` (stereo not drawn), the TGI with ACHN renal, in the experiment with BT-549 breast, with IGROV1 ovarian, in the experiment with MDA-MB-231 breast, in the experiment on SF-268 CNS and in the experiment with SK-MEL-2 melanoma was above 100 µM each time. Besides, the TGI in the experiment on SK-MEL-5 melanoma, in the experiment on SNB-19 CNS and in the experiment with SNB-75 CNS was above 100 µM in each case.
`COc1ncnc2c1cnn2Cc1cn(CCCCO)nn1`: the TGI in the experiment on ACHN renal, in the experiment with BT-549 breast, in the experiment on COLO 205 colon, in the experiment on IGROV1 ovarian, in the experiment on MDA-MB-231 breast and in the experiment with SF-268 CNS was above 100 µM each time. For the same molecule, the TGI in the experiment with SK-MEL-2 melanoma, in the experiment with SK-MEL-5 melanoma and with SNB-19 CNS was above 100 µM throughout.
Consider `COc1ccc(Nc2nc3ccccc3nc2C(=O)O)cc1OC`, for which the TGI with ACHN renal, in the experiment on BT-549 breast, in the experiment on COLO 205 colon, with IGROV1 ovarian, in the experiment on MDA-MB-231 breast and in the experiment with SF-268 CNS was above 100 µM throughout. The TGI in the experiment with SK-MEL-5 melanoma, with SNB-19 CNS and in the experiment with SNB-75 CNS was above 100 µM in each case.
For the molecule `CC(C)(C)NC(=O)C12C3C4C1C1C2C3C41C(=O)NC(C)(C)C` (stereo not drawn), the TGI with ACHN renal, in the experiment on BT-549 breast, in the experiment on COLO 205 colon, with IGROV1 ovarian, in the experiment with MDA-MB-231 breast and with SF-268 CNS was above 100 µM each time. For the same molecule, the TGI in the experiment on SK-MEL-2 melanoma, in the experiment with SK-MEL-5 melanoma and with SNB-19 CNS was above 100 µM each time.
As to `O=C1CN(c2ccc(Cl)cc2)C(=O)CN1NCNN1CC(=O)N(c2ccc(Cl)cc2)CC1=O`, the TGI in the experiment on ACHN renal, in the experiment on BT-549 breast, in the experiment with COLO 205 colon, in the experiment with IGROV1 ovarian, with SF-268 CNS and with SK-MEL-5 melanoma was above 100 µM each time. Moreover, the TGI with SNB-19 CNS and in the experiment with SNB-75 CNS was above 100 µM each time.
For the molecule `C[N+](C)([O-])Cc1cc(-c2ccccc2)ccc1O`, the TGI with ACHN renal, in the experiment with BT-549 breast, in the experiment with IGROV1 ovarian, in the experiment on MDA-MB-231 breast, in the experiment with SF-268 CNS and in the experiment with SK-MEL-2 melanoma was above 100 µM in each case. The TGI with SK-MEL-5 melanoma, in the experiment with SNB-19 CNS and in the experiment with SNB-75 CNS was above 100 µM throughout.
Regarding `Cc1cc(C)n(CN(Cn2nc(C)cc2C)c2ccccc2)n1`, the TGI in the experiment on ACHN renal is 51.5 µM; in the experiment with BT-549 breast it was 69.2 µM; in the experiment with COLO 205 colon, 28.1 µM; in the experiment with IGROV1 ovarian, 95.2 µM; in the experiment on MDA-MB-231 breast, above 100 µM; in the experiment on SF-268 CNS, 52.6 µM. Also, the TGI is 44.6 µM in the experiment on SK-MEL-2 melanoma, 62.4 µM in the experiment with SK-MEL-5 melanoma and above 100 µM in the experiment on SNB-19 CNS.
On to `CC(=O)OCC(OC(C)=O)C(OC(C)=O)C(OC(C)=O)C(/C=N\Nc1nc2ccccc2c(=O)[nH]1)=N/Nc1nc2ccccc2c(=O)[nH]1` (stereo not drawn), for which the TGI in the experiment with ACHN renal, in the experiment on BT-549 breast, with COLO 205 colon, in the experiment with MDA-MB-231 breast, in the experiment on SF-268 CNS and in the experiment with SK-MEL-2 melanoma was above 100 µM throughout. The TGI in the experiment on SK-MEL-5 melanoma, in the experiment on SNB-19 CNS and in the experiment with SNB-75 CNS was above 100 µM each time.
Consider `CN(C)c1ccc(C(=NN)c2ccc(N(C)C)cc2)cc1`, for which the TGI was above 78.7 µM in the experiment on ACHN renal; above 100 µM in the experiment with BT-549 breast; above 100 µM in the experiment with IGROV1 ovarian; 10 µM with MDA-MB-231 breast; above 100 µM in the experiment with SF-268 CNS; 0.445 µM with SK-MEL-2 melanoma. The TGI was above 100 µM with SK-MEL-5 melanoma, above 100 µM in the experiment on SNB-19 CNS and 2.83 µM with SNB-75 CNS.
On to `N#CCCN(CCC#N)c1ccc(C(N=Nc2ccc(Cl)cc2)=Nc2ccc(F)cc2)cc1`, for which the TGI in the experiment with ACHN renal, with BT-549 breast, in the experiment on COLO 205 colon, in the experiment on IGROV1 ovarian, with MDA-MB-231 breast and in the experiment with SF-268 CNS was above 100 µM in each case. In addition, the TGI with SK-MEL-5 melanoma, in the experiment on SNB-19 CNS and with SNB-75 CNS was above 100 µM each time.
Take `COc1ccc(/C=C2/CCS(=O)(=O)c3ccc(C)cc3C2=O)cc1OC`: the TGI in the experiment with ACHN renal is 27.4 µM; in the experiment on BT-549 breast, 35.6 µM; in the experiment on COLO 205 colon, 28.4 µM; with IGROV1 ovarian, 22.4 µM; in the experiment on MDA-MB-231 breast it was 39.1 µM; in the experiment with SF-268 CNS, above 100 µM. Also, the TGI with SK-MEL-2 melanoma worked out at 60.9 µM; with SNB-19 CNS, 33.3 µM; with SNB-75 CNS, 57.2 µM.
As to `O=[As](O)(O)c1ccc2nc3cc([As](=O)(O)O)ccc3nc2c1`, the TGI with ACHN renal, in the experiment on BT-549 breast, with IGROV1 ovarian, in the experiment on MDA-MB-231 breast, with SF-268 CNS and in the experiment on SK-MEL-2 melanoma was above 100 µM each time. The TGI in the experiment on SK-MEL-5 melanoma, in the experiment on SNB-19 CNS and in the experiment with SNB-75 CNS was above 100 µM in each case.
Regarding `Cc1cc(C)n(C(=O)CSc2nnc(SCC(=O)n3nc(C)cc3C)s2)n1`, the TGI in the experiment with ACHN renal, in the experiment on BT-549 breast, with COLO 205 colon, in the experiment with MDA-MB-231 breast, in the experiment on SF-268 CNS and in the experiment on SK-MEL-5 melanoma was above 100 µM each time. Besides, the TGI in the experiment with SNB-19 CNS and with SNB-75 CNS was above 100 µM each time.
`CCCCCCCCCc1c(O)c(O)c(CCCCCCCCC)c(CCCCCCCCC)c1CCCCCCCCC`: the TGI in the experiment on ACHN renal, in the experiment on BT-549 breast, in the experiment on COLO 205 colon, in the experiment with IGROV1 ovarian, in the experiment with MDA-MB-231 breast and in the experiment with SF-268 CNS was above 100 µM each time. Moreover, the TGI in the experiment with SK-MEL-2 melanoma, in the experiment on SK-MEL-5 melanoma and in the experiment with SNB-19 CNS was above 100 µM in each case.
